Test results from patent US10519140B2, “Indolin-2-one derivatives” (Hoffmann-La Roche Inc., priority 2015, dated 2019).

Key:
[1] = target: T1, mouse ENT-1 transporter (Mus musculus, UniProt Q9JIM1); test: Adenosine transport activity (ENT1, [3H]-adenosine uptake inhibition); type: cell-based; conditions: stable cells expressing mouse ENT-1; [2,8-3H]-adenosine 6 nM, 20 min
T1 construct: expressed in transfected cells
T1 sequence (Q9JIM1 1-460): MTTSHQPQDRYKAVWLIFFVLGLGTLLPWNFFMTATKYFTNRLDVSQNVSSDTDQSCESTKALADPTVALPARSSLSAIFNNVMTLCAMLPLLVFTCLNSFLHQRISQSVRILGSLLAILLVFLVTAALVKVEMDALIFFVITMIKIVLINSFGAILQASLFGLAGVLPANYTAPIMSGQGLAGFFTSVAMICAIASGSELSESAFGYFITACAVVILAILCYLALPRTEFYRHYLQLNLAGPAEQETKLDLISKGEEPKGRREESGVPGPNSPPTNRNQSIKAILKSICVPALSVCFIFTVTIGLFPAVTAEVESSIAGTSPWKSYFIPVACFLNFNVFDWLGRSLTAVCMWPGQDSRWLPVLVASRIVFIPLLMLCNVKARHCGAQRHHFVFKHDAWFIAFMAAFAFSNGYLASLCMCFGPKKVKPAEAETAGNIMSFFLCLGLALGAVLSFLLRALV
Method in brief: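 Stable mammalian cells expressing mouse ENT1 are seeded at 60,000 cells/well and washed into HEPES-Tris pH 7.4 uptake buffer. Compounds (1% DMSO) are added at RT, immediately followed by 6 nM [3H]-adenosine for 20 min. Cell-associated radioactivity is counted by scintillation after ice-cold washes, with nonspecific uptake defined by 10 μM NBTI.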

[2] = system: mice; test: SmartCube behavioral signature similarity analysis; type: in vivo; conditions: for discrimination rate vs Clozapine (1.0 mg/kg) / discrimination rate vs Olanzapine (0.25 mg/kg) / discrimination rate vs Risperidone (0.06 mg/kg): rate of 0.70 or lower = similar; for SmartCube behavioral signature class: i.p.
Excerpt: In addition to the reversal of L-687,414 induced hyperlocomotion experiment as described above, some compounds of the present invention have been tested in SmartCube®, an automated system in which the behaviors of compound-treated mice in response to multiple challenges are captured by digital video and analyzed with computer algorithms (Roberds et al., Frontiers in Neuroscience, 2011, Vol. 5, Art. 103, 1-4; Vadim Alexandrov, Dani Brunner, Taleen Hanania, Emer Leahy Eur. J Pharmacol. 2015, 750, 82-99). In this way, the neuro-pharmacological effects of a test compound can be predicted by similarity to major classes of compounds, such as antipsychotics, anxiolytics and antidepressants. […] In addition to the above-mentioned experiments, it has been shown that some of the compounds of formula I are also ENT1 inhibitors (equilibrative nucleoside transporter 1 protein). Therapeutic potential of ENT1 inhibitors is directly or indirectly (via effects of adenosine and/or adenosine receptor modulation) described in the literature for the treatment of the following diseases: autoimmune disease (US 2006/253263), cancer (WO9857643), viral infections and fungal infections (WO2004060902), neurodegenerative disease, Parkinson's disease, Alzheimer's disease, Huntington's disease, amyotrophic lateral sclerosis, psychiatric diseases, substance abuse, ADHD, depression, epilepsy, anxiety, schizophrenia (WO0168105, EP 1252910, EP1612210, WO2009018275), autism spectrum disorders (Susan A. Masinoa, Masahito Kawamura Jr., Jessica L. Cotea, Rebecca B. Williams, David N. Ruskina, Neuropharmacology, 2013, 68, 116-121, pain (WO2009062990, WO2009064497), inflammation, asthma, (US 2007213296, Inflammation research, 2011, 60, 75-76), cardiovascular diseases (Trends in Pharmacological science, 2006, 27, 416-425), sleep disorders, (Psychopharmacology, 1987, 91, 434-439), and ophthalmology and inflammatory retinal diseases (World Journal of Diabetes, vol. 1, 12-18), epilepsy and neurodevelopmental disorders with co-morbid epilepsy (ENT1 Inhibition Attenuates Epileptic Seizure Severity Via Regulation of Glutamatergic Neurotransmission, Xu et al, Neuromol Med (2015) 17:1-11 and Epigenetic changes induced by adenosine augmentation therapy prevent epileptogenesis, Williams-Karneshy et al J Clin Invest. 2013 August; 123(8):3552-63.
As mentioned above, some compounds have been tested in SmartCube®, an analytical system developed by PsychoGenics Inc.
SmartCube® was used to compare the behavioral signature of a test compound to a database of behavioral signatures obtained from a large set of clinically approved reference drugs, grouped per indications. In this way, the neuro-pharmacological effects of a test compound can be predicted by similarity to major classes of compounds, such as antipsychotics, anxiolytics and antidepressants. This approach is ideally suited to screen collections of existing drugs or drug candidates with previously unknown neuropharmacology, which could expedite the development of new and unexpected treatments for psychiatric disorders.
Some compounds of the present invention were injected i.p. at different doses 15 minutes before the test. At least 8 mice were used in each treatment group. Digital videos of the subjects were processed with computer vision algorithms to extract over 2000 dependent measures including frequency and duration of many different behavioral states. The results of the classifications are presented as bar charts for each compound and dose (mg/kg), the Y-axis indicates the relative probability that the test compound will show efficacy in the specific CNS indication.
Compounds of the present invention show similar signatures to those of atypical antipsychotics. An independent analysis was performed on the unclassified data to determine the similarity of the example compounds to active doses of known atypical antipsychotics. […]

Structure (SMILES)	IC50 [1] [nM]	discrimination rate vs Clozapine (1.0 mg/kg) ([2]; example at 3 mg/kg i.p.)	discrimination rate vs Olanzapine (0.25 mg/kg) ([2]; example at 3 mg/kg i.p.)	discrimination rate vs Risperidone (0.06 mg/kg) ([2]; example at 3 mg/kg i.p.)	SmartCube behavioral signature class [2]	discrimination rate vs Clozapine (1.0 mg/kg) ([2]; example at 5 mg/kg i.p.)	discrimination rate vs Olanzapine (0.25 mg/kg) ([2]; example at 5 mg/kg i.p.)	discrimination rate vs Risperidone (0.06 mg/kg) ([2]; example at 5 mg/kg i.p.)
Cc1ncc(-c2ccc3c(c2)N(c2cnc4c(c2)C(C)(C)C(=O)N4C)C(=O)C3(C)C)cn1 [Example 54, 5-(3,3-Dimethyl-6-(2-methylpyrimidin-5-yl)-2-oxoindolin-1-yl)-1,3,3-trimethyl-1H-pyrrolo[2,3-b]pyridin-2(3H)-one]	23.9	0.54	0.51	0.57	similarity to atypical antipsychotics	–	–	–
Cc1ncc(-c2ccc3c(c2)N(c2cnc(-n4ccnc4C)cn2)C(=O)C3(C)C)cn1 [Example 50, 3,3-Dimethyl-1-(5-(2-methyl-1H-imidazol-1-yl)pyrazin-2-yl)-6-(2-methylpyrimidin-5-yl)indolin-2-one]	31.1	0.52	0.51	0.63	similarity to atypical antipsychotics	–	–	–
Cc1ncc(-c2ccc3c(c2)N(c2cncc(N4CCCC4=O)n2)C(=O)C3(C)C)cn1 [Example 3, 3,3-Dimethyl-6-(2-methylpyrimidin-5-yl)-1-(6-(2-oxopyrrolidin-1-yl)pyrazin-2-yl)indolin-2-one]	57	–	–	–	similarity to atypical antipsychotics	0.62	0.66	0.68
Cc1ncc(-c2ccc3c(c2)N(c2cnc(C)c(N4CCOC4=O)n2)C(=O)C3(C)C)cn1 [Example 20, 3-(6-(3,3-Dimethyl-6-(2-methylpyrimidin-5-yl)-2-oxoindolin-1-yl)-3-methylpyrazin-2-yl)oxazolidin-2-one]	16.5	0.53	0.51	0.57	similarity to atypical antipsychotics	–	–	–
Cc1ncc(-c2ccc3c(c2)N(c2ccc4c(n2)N(C)C(=O)C4(C)C)C(=O)C3(C)C)cn1 [Example 39, 6-(3,3-Dimethyl-6-(2-methylpyrimidin-5-yl)-2-oxoindolin-1-yl)-1,3,3-trimethyl-1H-pyrrolo[2,3-b]pyridin-2(3H)-one]	26.9	0.59	0.58	0.62	similarity to atypical antipsychotics	–	–	–
Cc1ncc(-c2ccc3c(c2)N(c2cncc(N4CCOCC4)n2)C(=O)C3(C)C)cn1 [Example 1, 3,3-Dimethyl-6-(2-methylpyrimidin-5-yl)-1-(6-morpholinopyrazin-2-yl)indolin-2-one]	39	0.56	0.59	0.83	similarity to atypical antipsychotics	–	–	–
Cc1ncc(-c2ccc3c(c2)N(c2cncc(N4CCOC4=O)n2)C(=O)C3(C)C)cn1 [Example 15, 3-(6-(3,3-Dimethyl-6-(2-methylpyrimidin-5-yl)-2-oxoindolin-1-yl)pyrazin-2-yl)oxazolidin-2-one]	26	0.57	0.56	0.59	similarity to atypical antipsychotics	–	–	–
Cc1ncc(-c2ccc3c(c2)N(c2cnc(C)c(N4CCOCC4)n2)C(=O)C3(C)C)cn1 [Example 18, 3,3-Dimethyl-1-(5-methyl-6-morpholinopyrazin-2-yl)-6-(2-methylpyrimidin-5-yl)indolin-2-one]	97	0.61	0.62	0.73	similarity to atypical antipsychotics	–	–	–
